# Assays:
# Assay type in all cases: cell-based
# [1] = biological target: T1, IR (NIH-3T3 cells over expressing human IGF-1R or IR) (Homo sapiens, UniProt P06213); assay: IR cellular autophosphorylation (DELFIA); conditions: NIH-3T3 cells over expressing IR, insulin stimulated
# T1 construct: expressed in transfected cells; host or cells: NIH-3T3 (mouse fibroblasts)
# Procedure: (§1) D. IGF-1R and IR Cellular Autophosphorylation (DELFIA)
# (§2) NIH-3T3 cells over expressing human IGF-1R or IR were plated in 96-well plates (10,000 cells/well) in culture media containing 10% fetal bovine serum and incubated at 37° C. in a 5% CO2 incubator. Twenty four hours post-plating, cells were treated with different concentrations of test compounds ranging from 30 uM to 1.5 nM. Two hours after compound addition, cells were stimulated with either human IGF-1 (30 ng/mL) or insulin (3 ug/mL) for 15 minutes. Cell lysates are analyzed for phosphorylated receptors using dissociation enhanced lanthanide fluor-immuno assay (DELFIA) with anti-IGF-1R (MAB391, R&D Systems, Minneapolis, Minn.) or anti-IR[…](sc-711, Santa Cruz Biotechnology, Santa Cruz, Calif.) capture antibody and europium-labeled anti-pTyr antibody (Eu-N1 PT66, Perkin Elmer, Waltham, Mass.) for detection. The fluorescence signal for cells treated with compounds was expressed as percent relative to 100% stimulation (IGF-1 or insulin stimulated signal). […]
# COLO205 (colon) = assay: Inhibition of cell proliferation, CellTiter-Glo, COLO205; conditions: Homo sapiens, COLO 205, 72 h
# Procedure: C. Inhibition of Cell Proliferation
# Cell proliferation was measured by either CellTiter-Glo (measures cellular ATP level as a surrogate for total cell number) or by InCell analyzer (counts number of nuclei as a measure of cell number). For CellTiter-Glo assay, exponentially growing cell lines of different tumor origins, cultured in appropriate media containing 10% fetal bovine serum at 37° C. in a 5% CO2 incubator, were plated at low density (less than 2000 cells/well) in 96-well plates. […] Several wells were left untreated as a control. Seventy two hours post-treatment, cell numbers were determined using 50-100 ul per well of CellTiter-Glo (Promega #G7573). Plates were incubated at 37° C. for 30 minutes and the chemiluminescent signal was read on the Victor V or Envison 2100 reader. […]
# [2] = biological target: T2, human IGF-1R (NIH-3T3 cells over expressing human IGF-1R) (Homo sapiens, UniProt P08069); assay: IGF-1R cellular autophosphorylation (DELFIA); conditions: IGF-1 stimulated
# T2 construct: expressed in transfected cells; host or cells: NIH-3T3 (mouse fibroblasts)
# T2 sequence (P08069 31-1367): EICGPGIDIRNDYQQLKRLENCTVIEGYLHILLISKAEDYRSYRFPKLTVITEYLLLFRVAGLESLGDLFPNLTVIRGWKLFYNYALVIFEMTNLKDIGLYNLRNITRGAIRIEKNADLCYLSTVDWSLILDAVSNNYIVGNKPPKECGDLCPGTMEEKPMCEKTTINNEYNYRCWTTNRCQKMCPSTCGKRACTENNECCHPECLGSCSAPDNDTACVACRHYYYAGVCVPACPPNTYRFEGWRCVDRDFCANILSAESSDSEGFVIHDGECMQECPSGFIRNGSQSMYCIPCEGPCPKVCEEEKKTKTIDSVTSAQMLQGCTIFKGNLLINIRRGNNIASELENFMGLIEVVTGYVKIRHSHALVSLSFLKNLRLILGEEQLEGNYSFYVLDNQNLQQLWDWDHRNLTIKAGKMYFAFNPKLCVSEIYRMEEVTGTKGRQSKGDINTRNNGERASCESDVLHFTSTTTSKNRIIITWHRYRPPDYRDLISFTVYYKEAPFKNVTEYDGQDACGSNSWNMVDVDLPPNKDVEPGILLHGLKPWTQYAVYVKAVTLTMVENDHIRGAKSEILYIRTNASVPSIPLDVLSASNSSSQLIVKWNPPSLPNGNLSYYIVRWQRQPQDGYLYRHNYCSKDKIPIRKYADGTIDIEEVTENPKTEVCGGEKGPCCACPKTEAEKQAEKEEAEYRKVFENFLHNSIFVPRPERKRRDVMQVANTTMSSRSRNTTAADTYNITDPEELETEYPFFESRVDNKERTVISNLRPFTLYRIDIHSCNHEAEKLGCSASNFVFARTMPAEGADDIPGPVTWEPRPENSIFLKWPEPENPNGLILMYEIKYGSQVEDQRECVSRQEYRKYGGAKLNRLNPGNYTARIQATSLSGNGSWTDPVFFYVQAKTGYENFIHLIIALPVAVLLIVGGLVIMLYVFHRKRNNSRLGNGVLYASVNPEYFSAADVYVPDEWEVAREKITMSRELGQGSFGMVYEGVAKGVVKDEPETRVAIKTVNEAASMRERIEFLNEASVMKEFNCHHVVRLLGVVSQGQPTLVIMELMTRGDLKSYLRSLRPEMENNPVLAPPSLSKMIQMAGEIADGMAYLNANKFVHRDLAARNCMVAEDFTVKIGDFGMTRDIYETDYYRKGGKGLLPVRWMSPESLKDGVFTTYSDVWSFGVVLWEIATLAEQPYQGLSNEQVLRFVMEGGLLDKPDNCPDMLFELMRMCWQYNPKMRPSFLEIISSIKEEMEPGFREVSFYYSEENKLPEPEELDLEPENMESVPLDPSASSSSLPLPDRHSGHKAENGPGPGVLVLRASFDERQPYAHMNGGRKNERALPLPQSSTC
# Procedure: as §1, §2
# T1 sequence (P06213 28-1382): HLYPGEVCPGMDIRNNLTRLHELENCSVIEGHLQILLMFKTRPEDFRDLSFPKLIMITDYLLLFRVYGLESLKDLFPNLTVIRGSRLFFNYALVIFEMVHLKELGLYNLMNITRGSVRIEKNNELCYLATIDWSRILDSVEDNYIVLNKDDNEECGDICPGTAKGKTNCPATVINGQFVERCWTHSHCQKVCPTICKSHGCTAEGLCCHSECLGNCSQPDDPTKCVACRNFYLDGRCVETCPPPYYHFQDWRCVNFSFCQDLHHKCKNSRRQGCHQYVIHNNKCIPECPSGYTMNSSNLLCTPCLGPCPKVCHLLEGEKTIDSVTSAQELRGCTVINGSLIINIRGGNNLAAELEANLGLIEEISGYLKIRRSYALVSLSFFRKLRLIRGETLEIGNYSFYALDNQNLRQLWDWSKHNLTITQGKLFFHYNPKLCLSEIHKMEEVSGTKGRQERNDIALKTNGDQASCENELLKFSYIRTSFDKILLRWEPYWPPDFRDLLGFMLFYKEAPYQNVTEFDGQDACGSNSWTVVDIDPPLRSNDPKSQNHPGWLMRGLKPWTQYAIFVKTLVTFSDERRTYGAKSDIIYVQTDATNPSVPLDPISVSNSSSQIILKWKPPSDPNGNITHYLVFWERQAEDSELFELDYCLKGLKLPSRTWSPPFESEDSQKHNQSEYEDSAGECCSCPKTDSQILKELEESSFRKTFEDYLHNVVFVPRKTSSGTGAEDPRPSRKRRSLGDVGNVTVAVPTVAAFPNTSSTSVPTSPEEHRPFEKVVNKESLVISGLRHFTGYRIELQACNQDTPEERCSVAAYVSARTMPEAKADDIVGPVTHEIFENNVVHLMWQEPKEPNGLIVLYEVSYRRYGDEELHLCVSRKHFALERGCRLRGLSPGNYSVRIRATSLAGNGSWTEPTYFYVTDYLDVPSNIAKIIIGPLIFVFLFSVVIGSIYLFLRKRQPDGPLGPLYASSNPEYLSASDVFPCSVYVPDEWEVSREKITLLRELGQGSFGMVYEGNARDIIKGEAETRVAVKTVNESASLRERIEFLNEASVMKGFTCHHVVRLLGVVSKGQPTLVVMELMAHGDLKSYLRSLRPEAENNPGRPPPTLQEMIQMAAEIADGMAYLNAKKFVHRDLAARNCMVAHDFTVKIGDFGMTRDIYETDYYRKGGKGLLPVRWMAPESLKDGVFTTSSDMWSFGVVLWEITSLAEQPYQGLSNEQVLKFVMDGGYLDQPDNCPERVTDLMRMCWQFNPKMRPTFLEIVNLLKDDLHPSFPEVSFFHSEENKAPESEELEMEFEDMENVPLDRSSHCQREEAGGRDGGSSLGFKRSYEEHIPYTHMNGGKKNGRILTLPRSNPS
IC50 [1] [nM],IC50 (COLO205 (colon)) [nM],IC50 [2] [nM],SMILES
> 500,> 1000,,"COc1cc(-c2nnc(CN(C)C)o2)ccc1Nc1nccc(-c2c(-c3cccc(C(=O)Nc4c(F)cccc4F)c3)nc3ccccn23)n1 [Example 27, N-(2,6-difluorophenyl)-3-[3-(2-{[4-{5-[(dimethylamino)methyl]-1,3,4-oxadiazol-2-yl}-2-(methyloxy)phenyl]amino}-4-pyrimidinyl)imidazo[1,2-a]pyridin-2-yl]benzamide]"
< 100,,< 100,"CCc1cc(Nc2nccc(-c3c(-c4ccc(OC)c(C(=O)Nc5c(F)cccc5F)c4)nc4ccccn34)n2)c(OC)cc1N1CCN(CCS(C)(=O)=O)CC1 [Example 187, N-(2,6-difluorophenyl)-5-(3-{2-[(5-ethyl-2-(methyloxy)-4-{4-[2-(methylsulfonyl)ethyl]-1-piperazinyl}phenyl)amino]-4-pyrimidinyl}imidazo[1,2-a]pyridin-2-yl)-2-(methyloxy)benzamide]"
,< 250,< 100,"COc1cc(CCN2CCN(C)CC2)ccc1Nc1nccc(-c2c(-c3ccc(OC)c(C(=O)Nc4c(F)cccc4F)c3)nc3ccccn23)n1 [Example 131, N-(2,6-difluorophenyl)-2-(methyloxy)-5-{3-[2-({2-(methyloxy)-4-[2-(4-methyl-1-piperazinyl)ethyl]phenyl}amino)-4-pyrimidinyl]imidazo[1,2-a]pyridin-2-yl}benzamide]"
,250 to 1000,< 100,"COc1cc(N2CCC(OC)CC2)ccc1Nc1nccc(-c2c(-c3ccc(OC)c(C(=O)Nc4c(F)cccc4F)c3)nc3ccccn23)n1 [Example 126, N-(2,6-difluorophenyl)-2-(methyloxy)-5-{3-[2-({2-(methyloxy)-4-[4-(methyloxy)-1-piperidinyl}phenyl}amino)-4-pyrimidinyl]imidazo[1,2-a]pyridin-2-yl]benzamide]"
,250 to 1000,< 100,"COc1cc(CCN2CCN(C)CC2)ccc1Nc1nccc(-c2c(-c3cccc(C(=O)Nc4c(F)cccc4F)c3)nc3ccccn23)n1 [Example 132, N-(2,6-difluorophenyl)-3-{3-[2-({2-(methyloxy)-4-[2-(4-methyl-1-piperazinyl)ethyl]phenyl}amino)-4-pyrimidinyl]imidazo[1,2-a]pyridin-2-yl}benzamide]"
,250 to 1000,100 to 500,"COc1ccc(-c2nc3ccccn3c2-c2ccnc(Nc3cccc(CN4CCN(C)CC4)c3C)n2)cc1C(=O)Nc1c(F)cccc1F [Example 25, N-(2,6-difluorophenyl)-5-{3-[2-({2-methyl-3-[(4-methyl-1-piperazinyl)methyl]phenyl}amino)-4-pyrimidinyl}imidazo[1,2-a]pyridin-2-yl]-2-(methyloxy)benzamide]"
,250 to 1000,< 100,"COc1cc(N2CCC(OC)CC2)ccc1Nc1nccc(-c2c(-c3cccc(C(=O)Nc4c(F)cccc4F)c3)nc3ccccn23)n1 [Example 125, N-(2,6-difluorophenyl)-3-{3-[2-({2-(methyloxy)-4-[4-(methyloxy)-1-piperidinyl]phenyl}-amino)-4-pyrimidinyl}imidazo[1,2-a]pyridin-2-yl]benzamide]"
,250 to 1000,100 to 500,"COc1cc(CCN2CCCCC2)c(F)cc1Nc1nccc(-c2c(-c3cccc(C(=O)Nc4c(F)cccc4F)c3)nc3ccccn23)n1 [Example 128, N-(2,6-difluorophenyl)-3-{3-[2-({5-fluoro-2-(methyloxy)-4-[2-(1-piperidinyl)ethyl]phenyl}-amino)-4-pyrimidinyl]imidazo[1,2-a]pyridin-2-yl}benzamide]"
,< 250,< 100,"COc1cc(N2CCC(N3CCC[C@H](O)C3)CC2)ccc1Nc1nccc(-c2c(-c3ccc(OC)c(C(=O)Nc4c(F)cccc4F)c3)nc3ccccn23)n1 [Example 84, N-(2,6-difluorophenyl)-5-[3-(2-{[4-[(3S)-3-hydroxy-1,4′-bipiperidin-1′-yl]-2-(methyloxy)-phenyl]amino}-4-pyrimidinyl)imidazo[1,2-a]pyridin-2-yl]-2-(methyloxy)benzamide]"
